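Following 48 hours of exposure in 96-well plates, responses at five concentrations were used to interpolate endpoints linearly. GI50: concentration for 50% inhibition of growth.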 Activity calls are given as the source filed them. Rule as the data show it: active = GI50 up to about 1.1 µM and inactive = higher.
Tests used:
Experiment in all cases: NCI tumour cell line growth inhibition, 48 h
[1] = test system: A498
[2] = test system: A549
[3] = test system: ACHN
[4] = test system: COLO 205
[5] = test system: DU-145
[6] = test system: HOP-62
[7] = test system: HT-29
[8] = test system: IGROV-1
[9] = test system: MOLT-4
[10] = test system: OVCAR-3
[11] = test system: OVCAR-4
[12] = test system: PC-3
[13] = test system: SK-MEL-28
[14] = test system: SK-MEL-2
[15] = test system: SK-OV-3
[16] = test system: SNB-75
[17] = test system: U-251
[18] = test system: UACC-257
[19] = test system: UO-31
[20] = test system: HCT-116

Structure (SMILES) | GI50 [1] | GI50 [2] | GI50 [3] | GI50 [4] | GI50 [5] | GI50 [6] | GI50 [7] | GI50 [8] | GI50 [9] | GI50 [10] | GI50 [11] | GI50 [12] | GI50 [13] | GI50 [14] | GI50 [15] | GI50 [16] | GI50 [17] | GI50 [18] | GI50 [19] | GI50 [20]
Cc1cc(C)nc(NS(=O)(=O)c2ccc(Nc3c4ccccc4nc4c(C(=O)NC(CO)(CO)CO)cccc34)cc2)n1 | 31.3 µM (inactive) | 27.5 µM (inactive) | 34 µM (inactive) | 20.1 µM (inactive) | 55 µM (inactive) | 26.7 µM (inactive) | 28.1 µM (inactive) | 40.1 µM (inactive) | 6.1 µM (inactive) | 29.3 µM (inactive) | 45.9 µM (inactive) | 35.6 µM (inactive) | 27.1 µM (inactive) | 20.8 µM (inactive) | 31.9 µM (inactive) | 5.65 µM (inactive) | 24.8 µM (inactive) | 42 µM (inactive) | 85.1 µM (inactive) | 
O=C(NN1C(=O)C(Cl)C1c1ccc(Cl)cc1)c1c(Cl)c(Cl)c(Cl)c(Cl)c1-c1nc2ccccc2[nH]1 (configuration not stated) | 24.8 µM (inactive) | 26.4 µM (inactive) | 18.9 µM (inactive) | 18.3 µM (inactive) | 16.4 µM (inactive) | 40.2 µM (inactive) | 25.2 µM (inactive) | 3.61 µM (inactive) | 7.33 µM (inactive) | 27.8 µM (inactive) |  | 25.6 µM (inactive) | 16.9 µM (inactive) | 21.8 µM (inactive) | 42.7 µM (inactive) | 19.2 µM (inactive) |  | 25.2 µM (inactive) | 22.6 µM (inactive) | 15.5 µM (inactive)
COc1cccc2c1C(=O)c1ccc3cc(CCl)cc(O)c3c1C2=O | 1.19 µM (inactive) | 0.414 µM (active) | 0.233 µM (active) | 0.203 µM (active) | 0.762 µM (active) | 0.483 µM (active) | 0.207 µM (active) | 1.03 µM (active) | 0.238 µM (active) | 0.243 µM (active) |  | 0.243 µM (active) | 0.348 µM (active) | 0.33 µM (active) | 1.19 µM (inactive) | 0.94 µM (active) | 0.366 µM (active) | 0.269 µM (active) | 0.336 µM (active) | 0.1 µM (active)
O=S(=O)(O)c1c(Cl)cc(O)c2ncccc12 | > 100 µM (inactive) | > 100 µM (inactive) | > 100 µM (inactive) | > 100 µM (inactive) | > 100 µM (inactive) | > 100 µM (inactive) | > 100 µM (inactive) | > 100 µM (inactive) | > 100 µM (inactive) | > 100 µM (inactive) | > 100 µM (inactive) | > 100 µM (inactive) | > 100 µM (inactive) | > 100 µM (inactive) |  | > 100 µM (inactive) | > 100 µM (inactive) | > 100 µM (inactive) | > 100 µM (inactive) | > 100 µM (inactive)
CN(C)c1n/c(=N/Cc2ccccn2)ss1 | > 10 µM (inactive) | > 10 µM (inactive) | > 10 µM (inactive) | > 10 µM (inactive) | > 10 µM (inactive) | > 10 µM (inactive) | > 10 µM (inactive) | > 10 µM (inactive) | 1.78 µM (inactive) | > 10 µM (inactive) | > 7.26 µM (inactive) | > 10 µM (inactive) | > 10 µM (inactive) |  | > 10 µM (inactive) | > 10 µM (inactive) | > 10 µM (inactive) | > 10 µM (inactive) | > 10 µM (inactive) | 7.98 µM (inactive)
CCOC(=O)N1CCC2(CC1)C[C@@](C(C)=O)(c1ccccc1)C(C)O2 (some centres not stated) | > 100 µM (inactive) | 51.3 µM (inactive) | > 100 µM (inactive) | > 100 µM (inactive) | > 100 µM (inactive) | > 100 µM (inactive) | > 100 µM (inactive) | > 100 µM (inactive) | > 100 µM (inactive) | > 100 µM (inactive) | > 100 µM (inactive) | > 100 µM (inactive) | > 100 µM (inactive) | > 100 µM (inactive) | 57.4 µM (inactive) | 80.7 µM (inactive) | > 100 µM (inactive) | > 100 µM (inactive) | > 100 µM (inactive) | 
COC(=O)CC(C#N)(OP1(=O)OC(c2ccccc2)C(C)N1C)c1ccccc1 (configuration not stated) | 44.6 µM (inactive) | 34.3 µM (inactive) | 25.9 µM (inactive) | 34.5 µM (inactive) | 32.4 µM (inactive) | 30.7 µM (inactive) | 23.8 µM (inactive) | 34.4 µM (inactive) | 25.5 µM (inactive) | 18.8 µM (inactive) |  | 37 µM (inactive) | 31.1 µM (inactive) | 27.2 µM (inactive) | 40.5 µM (inactive) | 43.4 µM (inactive) | 23.1 µM (inactive) | 20.6 µM (inactive) | 12.1 µM (inactive) | 24.2 µM (inactive)
